Reference: a melting point compilation (Tetko et al.; mined from patent text by program, amines drawn as free bases though some values may be those of a salt)

SMILES	melting point
Clc1ccnc2cc3c(cc12)OCO3	130 to 132 °C
CC(C)(C)C(=O)Oc1ccc(C(=O)c2ccc(OC(=O)C(C)(C)C)cc2OC(=O)C(C)(C)C)cc1	94 to 96 °C
Fc1cc(Nc2ccc(Oc3ccccc3)cc2)ccn1	149 °C
Cc1c(C(=O)c2ccccc2)[nH]c(CC(=O)O)c1C(=O)O	250 to 253 °C
CSc1cc(OCCC[Si](C)(C)C)c(Cl)cc1[N+](=O)[O-]	51 to 53 °C
CC(C)c1cccc(C(C)C)c1N1C(=O)c2cccc3c(Cl)ccc(c23)C1=O	289 °C
COc1ccc2c(c1)S(=O)c1nccnc1N2C (stereo not drawn)	229 to 231 °C
CCN(CC)C(=O)C=Cc1cc([N+](=O)[O-])ccc1C	61.9 °C
N#Cc1ncn2c(C(F)(F)F)cc(-c3ccncc3)nc12	254 °C
C=CCSC(=S)N1Cc2[nH]c3ccccc3c2CC1C(=O)O (stereo not drawn)	161 to 162 °C
CCC1CCC2C3CCC4CC(O)CCC4(C)C3C(N(C)C)CC12C (stereo not drawn)	147 to 150 °C
CCOC(=O)CCCCCCCn1c(-c2ccccc2)c(-c2ccccc2)[nH]c1=O	78 to 79 °C
O=[N+]([O-])c1ccc(CCCNCCO)cc1	82.5 to 84.5 °C
COC(=O)C(Cc1ccc(OC)c(C(=O)NCc2ccc(C(F)(F)F)cc2)c1)SC (stereo not drawn)	127 to 128 °C
C=CCOc1cc([N+](=O)[O-])ccc1OCC1CO1 (stereo not drawn)	64 °C
COC(=O)Nc1nc2ccc(OS(=O)(=O)c3cccc(OC(F)(F)C(F)F)c3)cc2[nH]1	186 °C
CCOC(=O)C=Cc1ccc(Cl)cc1NS(=O)(=O)c1ccc(C)cc1	124 to 127 °C
Cc1cccc(NC(=O)C2=C(O)c3ccc4ccccc4c3S(=O)(=O)N2C)n1	221 to 223 °C
CCCCSc1nc(O)ns1	78 °C
CCCCC=Cc1ccc(Cc2c(C)[nH]c3ccc(C(=O)OC)cc23)c(Cl)c1	141 to 146 °C
COc1cc(C(=O)Nc2cc(F)ccc2C(=O)O)cc(OC)c1OC	232 to 233 °C
CC(C)(C)OC(=O)NC(=Cc1ncoc1C(C)(C)C)C(=O)OC(C)(C)C	170 to 172 °C

SMILES	melting point
Clc1cnc(N2CCNCC2)cn1	98 to 102 °C
O=C1Nc2ccccc2Sc2nccn21	250 to 252 °C
COc1cc2ncc(C#N)c(Nc3cccc(CO)c3C)c2cc1OC	123 to 125 °C
CCn1ncc2nc(C(=O)NC)c(-c3ccccc3)nc21	165 to 166 °C
C=CCCCc1cc(-c2ccc(F)cc2)nc(C)n1	44.5 to 45.5 °C
O=C1CC(=O)CC(c2cc([N+](=O)[O-])ccc2F)C1	171 to 173 °C
COC(=O)c1ncc(Cl)nc1Cl	60 to 63 °C
CNc1ccc(C#N)c(F)c1	110 to 112 °C
COC(=O)C1(S(C)(=O)=O)C(C)NC(C)=CC1c1ccccc1S(=O)(=O)NN(C)C (stereo not drawn)	218 to 221 °C
NS(=O)(=O)c1ccc(-c2cc(-c3c[nH]nc3-c3cccc(C4CC4)n3)ccc2F)cc1	225 to 226 °C
Cn1[nH]c(=O)n(-c2cc(F)c(C(=O)Cl)cc2F)c1=O	> 250 °C
COC(=O)C(C(=O)OC)c1ccc2c(c1)C(=O)c1cc3ccccc3cc1C2=O	211 to 215 °C
CCOC1Nc2c(O)cccc2C(=O)N2CCCC12 (stereo not drawn)	153 to 155 °C
CCOC1(C(Cl)(Cl)Cl)NC(=O)C(=O)N1	189 to 201 °C
Cc1cc(C(O)CN2CCC(O)(c3cccc(F)c3)CC2)c(C)cc1O (stereo not drawn)	193 °C
COC=C(C(=O)OC)N(C)c1cccc(-c2ccccc2)n1	89 to 90 °C
CN1Cc2c(-c3noc(C4CC4)n3)ncn2-c2cccc(Cl)c2C1=O	165 to 169 °C
COC1=C(OC)C(=O)C2=C(CC(CCCCOc3ccc(C(=O)N(C)C)cc3)C2)C1=O	80 to 83 °C
C[C@@H](SN1CCOCC1)[C@](O)(Cn1cncn1)c1ccc(F)cc1F	119 to 121 °C
CCSCC1=C(O)CC(C)(C)CC1=O	134 °C
c1ccc(CN2CCC(COc3ccccc3)CC2)cc1	56 to 57 °C
C[C@@H]1C(=O)C[C@H]2C[C@@H]1OO[C@@]2(C)/C=C\c1ccc(C(C)(C)C)cc1	101 °C

SMILES	melting point
CC(C)c1cccc(C(C)C)c1NC(=O)NCC1(O)CCc2ccccc21 (stereo not drawn)	173 to 174 °C
Nc1ccn(C2OC(CO)C(O)C2O)c(=O)c1Br (stereo not drawn)	202 to 204 °C
CO/N=C(/C(N)=O)c1ccccc1Oc1ccccc1	98 to 99 °C
CCOP(=O)(O)COCCn1cnc2c(=O)[nH]c(N)nc21	192 to 194 °C
CC(=O)Nc1ccc2c(c1)NC(=O)C(CCCN1CCN(c3ccc(F)cc3)CC1)O2 (stereo not drawn)	111 to 112 °C
COc1ccc(C(=O)Nc2ccncc2)c2c1oc1ccc(NC(C)=O)cc12	267 to 268 °C
NS(=O)(=O)C1CCCCC1=O (stereo not drawn)	118 to 119 °C
Cc1c(C#N)ncn1-c1cccc(O)c1	205 to 207 °C
CC12CCC(C1)C1(C)Oc3ccc(CCOc4ccc(C(=O)O)c(O)c4)cc3C21C (stereo not drawn)	212 to 214 °C
CCOC(=O)C(Sc1ccc(O)cc1)c1ccc(Cl)cc1 (stereo not drawn)	63 °C
COC(=O)c1ccc(-c2nn(Cc3ccccc3)c3ccccc23)o1	137 to 138 °C
FC(F)(F)c1cccc(NC2CCN(c3ccc(Cl)nn3)CC2)c1	118 °C
CCN1CC(=O)N(c2ccc(Cl)cc2Cl)C1=S	144 to 146 °C
CCC1(C)SC(=NOC(=O)N(C)C(C)=O)N=C1C (stereo not drawn)	98 to 101 °C
N#CCCC(C#N)CSc1ccc2ccccc2c1 (stereo not drawn)	52 to 55 °C
CC(Cn1c2ccccc2c2ccccc21)OS(C)(=O)=O (stereo not drawn)	125 to 127 °C
CSc1nc(N)nn1C	104 to 109 °C
COC(=O)CCCCc1csc(N=C2SC[C@@H]3Cc4ccccc4CN23)n1	92 °C
O=C(O)c1ccc2c(c1)CCC(CO)O2 (stereo not drawn)	150 °C
Cc1cc(CC(C)(C)NCC(O)c2cc(OCc3ccccc3)cc3c2OCC(=O)N3)ccc1F (stereo not drawn)	228 to 230 °C
COC(=O)CCCc1cc2cc(Cl)ccc2n1S(=O)(=O)c1cccc2ccccc12	94 to 97 °C
O=Cc1cc2ccc3c4ccccc4ccc3c2o1	123 °C

SMILES	melting point
CCN(CC)c1ccc([N+](=O)[O-])c2nnoc12	133 to 136 °C
Nc1ncnc2c1c(-c1ccc(Oc3ccccc3)cc1)nn2C1CCOCC1	187 to 188 °C
O=S(=O)(Cl)c1ccc(-c2ccc3c(c2)OCO3)s1	117 to 119 °C
CC(=O)C[C@@H](Cc1ccccc1)C(=O)O	71 to 73 °C
O=C(Cl)C=Cc1cccc([N+](=O)[O-])c1	81 to 83.5 °C
COC(=O)c1cc(F)c(F)c2ccc(C)nc12	99 to 101 °C
CCCC1C(=O)N(S(=O)(=O)c2ccc3ccccc3c2)C2CCN(C(=O)CN3CCCCC3)C12 (stereo not drawn)	161 to 163 °C
CC1(C)CC(=C(c2ccc(O)cc2)c2ccc(C(N)=O)cc2)CC(C)(C)C1	209 to 210 °C
NC(N)=Nc1nc(-c2nc(N)sc2C=NS(N)(=O)=O)cs1	> 300 °C
O=C(CNc1ccccc1Cl)Nc1c(Cl)ccc2nc(N3CC[C@@H](O)C3)ccc12	215 to 219 °C
CSC(C#N)c1cccc(C(=O)c2ccc(Cl)cc2)c1N (stereo not drawn)	122 °C
O=C1N(c2cc(Cl)cc(Cl)c2)C(=O)[C@]2(Cc3ccc(Br)cc3)C[C@@H](O)CN12	88.3 °C
[N-]=[N+]=NC[C@H]1O[C@H]([C@H](O)CO)[C@H](O)[C@@H]1O	86 °C
CN1CCC(n2cc(C3=C(c4cn(C)c5ccccc45)C(=O)NC3=O)c3ccccc32)CC1	316 to 318 °C
COC(=O)c1c(C2CC2)nn2ccc3c(c12)CCO3	170 to 172 °C
CCCCc1nc(C(C)(O)CC)c(C#N)[nH]1 (stereo not drawn)	139 to 142 °C
CCCCc1nc(C(C)=O)c(C#N)[nH]1	77 to 78 °C
O=C(Nc1ccc(OC(F)(F)F)cc1)NC1CCN(S(=O)(=O)c2ccccc2)CC1	188 to 189 °C
O=Cc1c(-c2ccc(Cl)cc2)nsc1-c1ccccc1	148 to 149 °C
CCCOc1cccc(Oc2ccc3c(c2)C=C(C(=O)Nc2ccc(CN(C)C4CCOCC4)cc2)CCS3(=O)=O)c1	143 to 144 °C
Cn1ncc(C(=O)Nc2cc(Cl)ccc2Cl)c1N	190 to 191 °C
CSC(=NC(=O)N(C)C)NC(=O)NC(C)(C)C	74 to 78 °C

SMILES	melting point
NC(=O)CCc1cccc2c1C[C@@H](CCCCc1ccccc1)O2	92 to 93 °C
N#CCCN(N)c1nc2cccc(Cl)c2o1	114 to 115 °C
O=C1Cc2cc(NC(=O)C(=O)N3CCC(Cc4ccccc4)CC3)ccc2N1	115 to 118 °C
CN1C(=O)[C@H](NC(=O)CCc2ccc(F)cc2F)N=C(c2ccccc2)c2ccccc21	79 to 81 °C
CCN(CC)C(=S)n1cnc(S(=O)(=O)CC2CCCC2)n1	78 °C
O=C(O)c1cccc(CC2COc3ccc(OCc4ccc5ccccc5n4)cc3C2O)c1 (stereo not drawn)	193 to 195 °C
O=C1C=C(NC(=O)C(=O)c2cn(Cc3ccc(Cl)cc3)c3cc(Cl)ccc23)CO1	255 to 257 °C
Cc1nc(CNc2c(C)cccc2C)n[nH]1	125 to 126 °C
CCOC(=O)c1c(NCc2ccccc2)nc2ccc(Br)cc2c1Cl	163 to 165 °C
CCOC(=O)c1c(C(F)F)nc(C(F)(F)F)c(C(=O)OCC)c1Br	37 to 43 °C
Cc1cc(Oc2ccc(N)cc2)c2cc3c(cc2n1)OCO3	251 to 253 °C
N#Cc1ccc(OCc2ccccc2)cc1O	130 °C
COc1ccc2c(c1)CCC(=O)NC2c1ccccc1 (stereo not drawn)	185 to 186 °C
NC(=O)OC(CC(=NNC(N)=S)c1ccccc1)c1ccccc1 (stereo not drawn)	149 to 150 °C
COc1cc(NS(C)(=O)=O)c(Oc2ccccc2)cc1C(C)=O	108 to 110 °C
CC(=Cc1ccc(N(C)C)cc1Br)[N+](=O)[O-]	102 to 103 °C
COc1ccc(Sc2c(C(=O)O)[nH]c3cc(C)ccc23)cc1	190 to 192 °C
O=c1oc2c(c(O)c1C(C1CC1)C1CC1)CCCCCC2Cc1ccccc1 (stereo not drawn)	94 to 97 °C
CCCCCCC(=O)NCC(=O)O	98 to 100 °C
CCN1C(=O)N(c2cc(OC)cc(OC)c2)Cc2cnc(SC)nc21	134 to 136 °C
